Data on 1 compound can be found in patent US20050176115A1, “Process for the production of methionine” (Nippon Soda Co., Ltd., priority 2002, published 2005).

For series [1] the following is noted: by addition of inorganic alkali such as NaOH and KOH.
For series [2] the following is noted: ammonia present at an excessive amount in mole ratio to methionine; 5-50° C.; FIG. 1. The source says: About 20 wt % of methionine also can be dissolved in water by addition of inorganic alkali such as NaOH and KOH, while in this case it is required to neutralize with the use of acid to obtain a product in the form of salt-free solid of methionine, leading to a problem that an additional operation to remove a lot of inorganic salt waste generated from the neutralization is required.

For series [3] the following is noted: cited from earlier work.

SMILES strings stand for the structures. Read-outs that look alike come from different tables or passages of the source.

Regarding `CSCC[C@H](N)C(=O)O` (racemic) [methionine], the “amount of methionine that can be dissolved in water” value in series [1] was “About 20 wt %”. Also, in series [2], the solubility of methionine result was “increases”. Moreover, the water solubility in series [3] (at 25° C.) is on record as 3.38 g/100 g·H2O; in series [3] (at 50° C.), 6.07 g/100 g·H2O.
